In PubChem BioAssay AID485351 (Sanford-Burnham Center for Chemical Genomics, 2010):
“And” between values parts separate entries of the source, which are not always exact repeats. Equal values may be shown once. The source made the active and inactive calls. No rule for the calls is given here.

Biological target: Ubiquitin-conjugating enzyme E2 N (Homo sapiens) (UniProt P61088)
Assay: Ubc13/Uev1a ubiquitination inhibitors, SAR follow-up, biochemical, TR-FRET, set 2 (AID 485351)
Conditions: in vitro Ubc13-Uev1a ubiquitination

Sequence of Ubiquitin-conjugating enzyme E2 N (Homo sapiens) (P61088 whole entry, looked up): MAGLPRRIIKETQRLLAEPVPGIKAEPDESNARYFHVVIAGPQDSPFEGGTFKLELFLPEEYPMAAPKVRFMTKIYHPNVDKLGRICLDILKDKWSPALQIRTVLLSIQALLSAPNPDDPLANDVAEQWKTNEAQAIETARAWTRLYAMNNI

| Structure (SMILES) | IC50 |
| --- | --- |
| C=C[C@H](Nc1ccccc1)C12C=CC(O1)C(C(=O)OC)=C2C(=O)OC (some centres undefined) | 51.5 µM |
| COC(=O)C1=C(C(=O)OC)C2([C@@H](Cc3ccc(OC)cc3)Nc3ccccc3)C=CC1O2 (some centres undefined) | > 100 µM (inactive) |
| COC(=O)C1=C(C(=O)OC)C2([C@@H](Cc3ccccc3)Nc3ccc(OC)cc3)C=CC1O2 (some centres undefined) | > 100 µM (inactive) |
| COc1cc(/C=C2\C(=O)N(c3ccccc3)N=C2C)ccc1O | > 100 µM (inactive) |
| C=CC[C@H](N(Cc1ccccc1)/C(=C\C(=O)OC)C(=O)OC)C12C=CC(O1)C(C(=O)OC)=C2C(=O)OC (some centres undefined) | > 100 µM (inactive) |
| CCC(=O)Nc1c(S(=O)(=O)c2ccccc2)c2nc3ccccc3nc2n1Cc1ccccc1 | 0.755 µM |
| CCCN1C(=O)C(NC(C)=O)c2cc(OC)ccc21 (centres undefined) | > 100 µM (inactive) |
| CCCCn1c(NC(=O)c2ccccc2Cl)c(S(=O)(=O)c2ccccc2)c2nc3ccccc3nc21 | 1.68 µM |
| C=CC[C@H](Nc1ccc(OC)cc1)C12C=CC(O1)C(C(=O)OC)=C2C(=O)OC (some centres undefined) | > 100 µM (inactive) |
| CCCCn1c(NC(=O)c2ccccc2)c(S(=O)(=O)c2ccc(C)cc2)c2nc3ccccc3nc21 | 1.95 µM and 1.1 µM |
| CCCCn1c(NC(C)=O)c(C#N)c2nc3ccccc3nc21 | 0.669 µM |
| COc1ccc2c(c1)C(NC(C)=O)C(=O)N2CCc1ccccc1 (centres undefined) | > 100 µM (inactive) |
| COc1ccc2c(c1)C(NC(C)=O)C(=O)N2CCOc1ccccc1 (centres undefined) | > 100 µM (inactive) |
| C=CC[C@H](Nc1ccc(Cl)cc1)C12C=CC(O1)C(C(=O)OC)=C2C(=O)OC (some centres undefined) | > 100 µM (inactive) |
| COCCNC(=O)c1c(NC(=O)c2ccccc2)n(Cc2ccccc2)c2nc3ccccc3nc12 | 0.656 µM |
| CCCC1=NN(c2ccc(C(=O)O)cc2)C(=O)/C1=C/c1ccc(O)cc1 | > 100 µM (inactive) |
| C=CCn1c(NS(=O)(=O)c2ccccc2)c(S(=O)(=O)c2ccc(C)cc2)c2nc3ccccc3nc21 | 0.769 µM |
| C=CC[C@H](Nc1ccccc1)C12C=CC(O1)C(C(=O)OC)=C2C(=O)OC (some centres undefined) | > 100 µM (inactive) |
| CCCCn1c(NC(=O)c2ccccc2Cl)c(C#N)c2nc3ccccc3nc21 | 0.697 µM and 1.01 µM |
| C=CC[C@@H](Nc1ccc(Cl)cc1)C12C=CC(O1)C(C(=O)OC)=C2C(=O)OC (some centres undefined) | > 100 µM (inactive) |
| CCCCn1c(NC(=O)CC)c(S(=O)(=O)c2ccc(C)cc2)c2nc3ccccc3nc21 | 0.742 µM |
| CCCCn1c(NC(=O)c2ccc(Cl)cc2)c(C#N)c2nc3ccccc3nc21 | 0.859 µM |
| CCC[C@H](Nc1ccccc1)C12C=CC(O1)C(C(=O)OC)=C2C(=O)OC (some centres undefined) | > 100 µM (inactive) |
| CCCC1=NN(c2ccccc2)C(=O)/C1=C/c1ccc(OCc2ccc(C(=O)OC)cc2)cc1 | > 100 µM (inactive) |
| C=CC[C@@H](Nc1ccc(C)cc1)C12C=CC(O1)C(C(=O)OC)=C2C(=O)OC (some centres undefined) | > 100 µM (inactive) |
| C=CCC(Nc1ccccc1)C12C=CC(O1)C(C(=O)OC)=C2C(=O)OC (centres undefined) | > 100 µM (inactive) |
| CCCCn1c(NC(=O)c2ccco2)c(S(=O)(=O)c2ccc(C)cc2)c2nc3ccccc3nc21 | 0.809 µM |

| Structure (SMILES) | IC50 |
| --- | --- |
| CCCCCn1c(NC(=O)c2ccco2)c(C(=O)OCC)c2nc3ccccc3nc21 | 0.501 µM |
| c1ccc(CC(Nc2ccccc2)c2ccco2)cc1 (centres undefined) | > 100 µM (inactive) |
| COC(=O)C1=C(C(=O)OC)C2([C@H](Cc3ccccc3)Nc3ccccc3)C=CC1O2 (some centres undefined) | > 100 µM (inactive) |
| COC(=O)C1=C(C(=O)OC)C2(C(Cc3ccc(F)cc3)Nc3ccccc3)C=CC1O2 (centres undefined) | > 100 µM (inactive) |
| COc1ccc2c(c1)C(=O)C(=O)N2CCN1CCOCC1 | > 100 µM (inactive) |
| Nc1c(C(=O)NCc2ccco2)c2nc3ccccc3nc2n1Cc1ccccc1 | 0.815 µM |
| COC(=O)C1=C(C(=O)OC)C2([C@H](Cc3ccc(C)cc3)Nc3ccccc3)C=CC1O2 (some centres undefined) | > 100 µM (inactive) |
| CCCCn1c(NC(=O)c2cccc(Cl)c2)c(C#N)c2nc3ccccc3nc21 | 1.34 µM |
| COCCn1c(NC(=O)c2ccc(Cl)cc2)c(S(=O)(=O)c2ccc(C)cc2)c2nc3ccccc3nc21 | 1.74 µM |
| C=CC[C@@H](N(Cc1ccccc1)/C(=C\C(=O)OC)C(=O)OC)C12C=CC(O1)C(C(=O)OC)=C2C(=O)OC (some centres undefined) | > 100 µM (inactive) |
| COC(=O)C1=C(C(=O)OC)C2([C@H](C)Nc3ccccc3)C=CC1O2 (some centres undefined) | 80.2 µM |
| C=CCn1c(NC(=O)c2ccccc2Cl)c(C#N)c2nc3ccccc3nc21 | 1.11 µM |
| COC(=O)C1=C(C(=O)OC)C2([C@@H](Cc3ccccc3)Nc3ccc(C)cc3)C=CC1O2 (some centres undefined) | > 100 µM (inactive) |
| CCCCn1c(NC(=O)C2CCCCC2)c(C#N)c2nc3ccccc3nc21 | 0.499 µM |
| COC(=O)C1=C(C(=O)OC)C2([C@@H](Cc3ccccc3)Nc3ccccc3)C=CC1O2 (some centres undefined) | > 100 µM (inactive) |
| CCCCn1c(NS(=O)(=O)c2ccccc2)c(S(=O)(=O)c2ccc(C)cc2)c2nc3ccccc3nc21 | 0.741 µM |
| COC(=O)C1=C(C(=O)OC)C2([C@H](C)Nc3ccc(Cl)cc3)C=CC1O2 (some centres undefined) | 53 µM |
| CCCCn1c(NC(=O)c2ccc(F)cc2)c(S(=O)(=O)c2ccc(C)cc2)c2nc3ccccc3nc21 | 1.32 µM |
| COC(=O)C1=C(C(=O)O)C2C=CC1([C@@H](Cc1ccccc1)Nc1ccccc1)O2 (some centres undefined) | > 100 µM (inactive) |
| CCCC1=NN(c2ccc(C(=O)O)cc2)C(=O)/C1=C/c1ccc(OCc2ccccc2)cc1 | > 100 µM (inactive) |
| CCCCn1c(N)c(S(=O)(=O)c2ccc(C)cc2)c2nc3ccccc3nc21 | 2.08 µM and 0.875 µM |
| CCCCNC(=O)c1c(NC(=O)c2ccccc2)n(Cc2ccccc2)c2nc3ccccc3nc12 | 18.8 µM |
| COC(=O)C1=C(C(=O)OC)C2([C@H](Cc3ccccc3)Nc3ccc(OC)cc3)C=CC1O2 (some centres undefined) | > 100 µM (inactive) |
| COC(=O)C1=C(C(=O)OC)C2([C@@H](C)Nc3ccc(C)cc3)C=CC1O2 (some centres undefined) | > 100 µM (inactive) |
| COC(=O)C1=C(C(=O)OC)C2([C@@H](C)Nc3ccc(Cl)cc3)C=CC1O2 (some centres undefined) | > 100 µM (inactive) |
| CCCC1=NN(c2ccc(C(=O)O)cc2)C(=O)/C1=C/c1ccc(OCc2ccccc2)c(OC)c1 | > 100 µM (inactive) |
| C=C[C@@H](Nc1ccccc1)C12C=CC(O1)C(C(=O)OC)=C2C(=O)OC (some centres undefined) | > 100 µM (inactive) |

| Structure (SMILES) | IC50 |
| --- | --- |
| Cc1cc(C)c2c(c1)C(=O)C(=O)N2CCN1CCOCC1 | > 100 µM (inactive) |
| COC(=O)[C@@H]1C2CCC([C@@H](Cc3ccccc3)Nc3ccccc3)(O2)[C@@H]1C(=O)OC (some centres undefined) | > 100 µM (inactive) |
| N#Cc1c(NC(=O)c2ccccc2Cl)n(Cc2ccccc2)c2nc3ccccc3nc12 | 2.78 µM |
| CCCCn1c(NC(=O)c2ccc(F)cc2)c(C#N)c2nc3ccccc3nc21 | 1.16 µM |
| CCCCn1c(NC(=O)c2ccc(OC)cc2)c(S(=O)(=O)c2ccc(C)cc2)c2nc3ccccc3nc21 | 0.752 µM |
| C=CC[C@H](Nc1ccc(C)cc1)C12C=CC(O1)C(C(=O)OC)=C2C(=O)OC (some centres undefined) | > 100 µM (inactive) |
| COC(=O)C=C(NC(CO)(CO)CO)C(=O)OC | 87.2 µM |
| COc1cc(/C=C2\C(=O)N(c3ccccc3)N=C2C)ccc1OC(=O)c1cccs1 | > 100 µM (inactive) |
| CCCCn1c(NC(=O)c2ccco2)c(C#N)c2nc3ccccc3nc21 | 0.777 µM |
| COC(=O)C1=C(C(=O)OC)C2([C@H](Cc3ccccc3)Nc3ccc(C)cc3)C=CC1O2 (some centres undefined) | > 100 µM (inactive) |
| N#Cc1c(NC(=O)c2ccccc2Cl)n(C2CCCCC2)c2nc3ccccc3nc12 | 2.84 µM |
| COc1ccc(CN2C(=O)C(NC(C)=O)c3ccccc32)cc1 (centres undefined) | > 100 µM (inactive) |
| CCCC1=NN(c2ccccc2)C(=O)/C1=C\c1ccc(O)cc1 | > 100 µM (inactive) |
| COC(=O)C1=C(C(=O)OC)C2([C@@H](Cc3ccc(C)cc3)Nc3ccccc3)C=CC1O2 (some centres undefined) | > 100 µM (inactive) |
| CCCCn1c(NC(=O)c2ccccc2)c(C#N)c2nc3ccccc3nc21 | 1.2 µM and 1 µM |
| COC(=O)C1=C(C(=O)OC)C2([C@@H](C)Nc3ccccc3)C=CC1O2 (some centres undefined) | > 100 µM (inactive) |
| COc1ccc2c(c1)C(NC(C)=O)C(=O)N2CC1COc2ccccc2O1 (centres undefined) | > 100 µM (inactive) |
| COC(=O)C1=C(C(=O)OC)C2([C@H](Cc3ccccc3)Nc3ccc(Cl)cc3)C=CC1O2 (some centres undefined) | > 100 µM (inactive) |
| C=CC[C@@H](Nc1ccccc1)C12C=CC(O1)C(C(=O)OC)=C2C(=O)OC (some centres undefined) | > 100 µM (inactive) |
| COC(=O)C1=C(C(=O)OC)C2([C@@H](Cc3ccccc3)Nc3ccc(Cl)cc3)C=CC1O2 (some centres undefined) | > 100 µM (inactive) |
| CCC[C@@H](Nc1ccccc1)C12C=CC(O1)C(C(=O)OC)=C2C(=O)OC (some centres undefined) | > 100 µM (inactive) |
| C=CC[C@@H](Nc1ccc(OC)cc1)C12C=CC(O1)C(C(=O)OC)=C2C(=O)OC (some centres undefined) | 78.9 µM |
| COc1cc(/C=C2\C(=O)N(c3ccccc3)N=C2C)ccc1OCc1ccccc1 | > 100 µM (inactive) |
| CC(=O)NC1C(=O)N(CCN2CCOCC2)c2ccc(C)cc21 (centres undefined) | > 100 µM (inactive) |
| COC(=O)C1=C(C(=O)OC)C2([C@@H](C)Nc3ccc(OC)cc3)C=CC1O2 (some centres undefined) | > 100 µM (inactive) |
